14 compounds from patent US7820714B2, “Siglec inhibitors” (priority 2001, dated 2010) can be followed below.

The target of one experiment is Siglec-1 (sialoadhesin) (Mus musculus, UniProt Q62230). In words: Hapten inhibition assay, Siglec-1 (sialoadhesin). The note with it: for Siglec-1 (sialoadhesin) percentage in parentheses below the IC50 bound: at the concentration of the IC50 bound, meaning not defined in the patent; for Siglec-1 (sialoadhesin) rIP: quotient IC50 reference compound / IC50 compound. The experiment is classed as binding.

Another experiment deals with T1, Siglec-2 (murine CD22) (Mus musculus, UniProt P35329).
T1 sequence (P35329 22-148 limits assumed): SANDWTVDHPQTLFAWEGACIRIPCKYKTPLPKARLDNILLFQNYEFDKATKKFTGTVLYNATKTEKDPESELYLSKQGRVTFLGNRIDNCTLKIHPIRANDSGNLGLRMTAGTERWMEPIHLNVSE
As to the kind of experiment: Hapten inhibition assay, Siglec-2 (murine CD22). The experiment is classed as binding. The note with it: for Siglec-2 (murine CD22) rIP: quotient IC50 reference compound / IC50 compound.

For the next experiment, the target named is T2, Siglec-2 (human CD22) (Homo sapiens, UniProt P20273).
T2 sequence (P20273 20-138 limits assumed): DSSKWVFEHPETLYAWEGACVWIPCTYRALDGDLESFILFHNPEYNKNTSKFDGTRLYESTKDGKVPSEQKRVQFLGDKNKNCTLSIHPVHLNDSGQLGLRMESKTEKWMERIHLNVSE
As to the kind of experiment: Hapten inhibition assay, Siglec-2 (human CD22). The experiment is classed as binding. Particulars: for Siglec-2 (human CD22) rIP: quotient IC50 reference compound / IC50 compound; for IC50: unit inferred.

Another experiment addresses T3, Siglec-4a (MAG) (UniProt P20917).
T3 sequence (P20917 1-627): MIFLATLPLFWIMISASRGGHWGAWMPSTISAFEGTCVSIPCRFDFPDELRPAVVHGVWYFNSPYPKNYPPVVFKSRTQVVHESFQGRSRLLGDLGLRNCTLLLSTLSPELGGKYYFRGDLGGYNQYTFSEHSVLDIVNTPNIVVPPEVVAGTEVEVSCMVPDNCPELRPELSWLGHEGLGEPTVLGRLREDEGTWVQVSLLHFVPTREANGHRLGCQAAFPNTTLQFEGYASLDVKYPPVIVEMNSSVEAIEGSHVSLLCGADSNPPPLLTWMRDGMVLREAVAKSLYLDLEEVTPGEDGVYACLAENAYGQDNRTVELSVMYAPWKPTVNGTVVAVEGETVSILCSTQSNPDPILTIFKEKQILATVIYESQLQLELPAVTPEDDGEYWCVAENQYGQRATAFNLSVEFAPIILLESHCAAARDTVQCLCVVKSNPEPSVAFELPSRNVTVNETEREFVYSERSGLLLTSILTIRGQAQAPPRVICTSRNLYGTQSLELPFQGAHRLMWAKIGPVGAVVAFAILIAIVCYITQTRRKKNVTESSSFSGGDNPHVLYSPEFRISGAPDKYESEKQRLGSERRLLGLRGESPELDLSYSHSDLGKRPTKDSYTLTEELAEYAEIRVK
In words: Hapten inhibition assay, Siglec-4a (MAG). Particulars: for Siglec-4a (MAG) rIP: quotient IC50 reference compound / IC50 compound; for IC50: read-out: Siglec-4a (MAG) IC50, unit inferred.

Sequence of Siglec-1 (sialoadhesin) (Q62230 20-136 limits assumed): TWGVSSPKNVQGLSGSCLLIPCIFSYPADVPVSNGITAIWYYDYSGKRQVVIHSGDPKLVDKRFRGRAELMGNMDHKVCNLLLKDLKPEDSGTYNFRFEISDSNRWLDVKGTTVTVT
Description for Siglec-1 (sialoadhesin): (§1) Preferably, the inhibition can be determined by a Hapten inhibition test. […] After overnight incubation at 4° C. the unbound complexes are removed by washing the cells and the bound radioactivity is determined. From the data obtained in this way, the concentrations are found which lead to 50% inhibition of the binding (IC50 values) (5, 6). Specially preferred during the Hapten inhibition test was 10 μl of the complex solution with an activity of 10^3 Bq ^125I mixed with the same volume of a solution of the substance to be investigated (concentrated three times) and incubated at 4° C. for one hour. Then followed the addition of 10 μl of a suspension of target cells, preferably 0.25 to 0.5% of human erythrocytes and incubation overnight at 4° C. The unbound radioactivity is removed by washing the cells five times with 200 μl of washing buffer, preferably phosphate-buffered saline with 0.1% (W/V) bovine serum albumin, and the cell-bound activity is determined with a γ-counter. […] The inhibition is determined in that the value without inhibitor is set to 0% and that with the sialidase-treated cells is set equal to 100%.
(§2) The IC50 value is the siglec inhibitor concentration which leads to 50% inhibition in the binding in the Hapten inhibition assay.
Description for Siglec-2 (human CD22): as §1, §2
Description for Siglec-2 (murine CD22): as §1, §2
Description for Siglec-4a (MAG): Preferably, the inhibition can be determined by a Hapten inhibition test. […] After overnight incubation at 4° C. the unbound complexes are removed by washing the cells and the bound radioactivity is determined. […] Then followed the addition of 10 μl of a suspension of target cells, preferably 0.25 to 0.5% of human erythrocytes and incubation overnight at 4° C. The unbound radioactivity is removed by washing the cells five times with 200 μl of washing buffer, preferably phosphate-buffered saline with 0.1% (W/V) bovine serum albumin, and the cell-bound activity is determined with a γ-counter. […] The inhibition is determined in that the value without inhibitor is set to 0% and that with the sialidase-treated cells is set equal to 100%.

For the compound `CCOc1c(N[C@H]2[C@H]([C@H](O)[C@H](O)CO)O[C@@](OC)(C(=O)O)C[C@@H]2O)c(=O)c1=O` [Methyl-α-5-N-(etoxycylcobutendion)-neuraminic acid], the “Siglec-1 (sialoadhesin) percentage in parentheses below the IC50 bound” value on Siglec-1 (sialoadhesin) is reported as “(92%)”. Also, the IC50 – broadly, the concentration that inhibits the measured activity by half – against Siglec-1 (sialoadhesin) (bounds given in mM) is above 5 mM; against Siglec-2 (murine CD22) (unit inferred) it was 3.37 mM; at Siglec-2 (human CD22) it was 940 µM; on Siglec-4a (MAG), 4300 µM. Further, the “Siglec-1 (sialoadhesin) rIP” value at Siglec-1 (sialoadhesin) is <<0.15. Besides, the “Siglec-2 (murine CD22) rIP” value at Siglec-2 (murine CD22) worked out at 1.5. Also, the “Siglec-2 (human CD22) rIP” value at Siglec-2 (human CD22) worked out at 2.3. Besides, the “Siglec-4a (MAG) rIP” value at Siglec-4a (MAG) came out at 0.5.

Regarding `CO[C@]1(C(=O)O)C[C@H](O)[C@@H](NC(=O)CO)[C@H]([C@H](O)[C@H](O)CO)O1` [Methyl-α-5-N-glycolyl-neuraminic acid], the “Siglec-2 (murine CD22) rIP” value on Siglec-2 (murine CD22) came to 8.3. In addition, on Siglec-2 (murine CD22) (unit inferred), the IC50 stood at 0.703 mM. Also, at Siglec-2 (human CD22), the “Siglec-2 (human CD22) rIP” value is 1.0 and half-maximal inhibition (IC50) was put at 1010 µM.

On to `CO[C@]1(C(=O)O)C[C@H](O)[C@@H](NC(C)=O)[C@H]([C@H](O)[C@H](O)CNC(=O)c2ccc([N+](=O)[O-])cc2[N+](=O)[O-])O1` [Methyl-α-9-N-(2,4-dinitrobenzoyl)-amino-9-desoxy-Neu5Ac], for which the “Siglec-1 (sialoadhesin) rIP” value on Siglec-1 (sialoadhesin) turned out to be 0.3. The IC50 against Siglec-1 (sialoadhesin) (unit inferred) was determined as 0.733 mM; against Siglec-2 (murine CD22) (unit inferred), 0.593 mM; on Siglec-2 (human CD22), 287 µM; at Siglec-4a (MAG) it was 205 µM. For the same compound, the “Siglec-2 (murine CD22) rIP” value at Siglec-2 (murine CD22) is 7.9. Also, the “Siglec-2 (human CD22) rIP” value at Siglec-2 (human CD22) turned out to be 7.7. The “Siglec-4a (MAG) rIP” value on Siglec-4a (MAG) is recorded as 18.

For `CO[C@]1(C(=O)O)C[C@H](O)[C@@H](NC(C)=O)[C@H]([C@H](O)[C@H](O)CNC(=O)c2cc(O)cc(O)c2)O1` [Methyl-α-9-N-(3,5-dihydroxybenzoyl)-amino-9-desoxy-Neu5Ac], the “Siglec-1 (sialoadhesin) rIP” value on Siglec-1 (sialoadhesin) stood at 1.7. Also, the IC50 was found to be 0.525 mM at Siglec-1 (sialoadhesin) (unit inferred), 1.47 mM against Siglec-2 (murine CD22) (unit inferred), 73 µM against Siglec-2 (human CD22) and 28 µM on Siglec-4a (MAG). Also, the “Siglec-2 (human CD22) rIP” value on Siglec-2 (human CD22) came out at 19. In addition, the “Siglec-4a (MAG) rIP” value at Siglec-4a (MAG) turned out to be 166.

For `COc1ccc(C(=O)NC[C@@H](O)[C@@H](O)[C@@H]2O[C@@](OC)(C(=O)O)C[C@H](O)[C@H]2NC(C)=O)cc1` [Methyl-α-9-N-(4-methoxybenzoyl)-amino-9-desoxy-Neu5Ac], the “Siglec-1 (sialoadhesin) rIP” value on Siglec-1 (sialoadhesin) was found to be 8.4. The IC50 came out at 0.042 mM on Siglec-1 (sialoadhesin) (unit inferred), 0.667 mM against Siglec-2 (murine CD22) (unit inferred), 120 µM against Siglec-2 (human CD22) and 12 µM at Siglec-4a (MAG). In addition, the “Siglec-2 (murine CD22) rIP” value on Siglec-2 (murine CD22) is reported as 7.4. Besides, at Siglec-2 (human CD22), the “Siglec-2 (human CD22) rIP” value turned out to be 19. Besides, the “Siglec-4a (MAG) rIP” value on Siglec-4a (MAG) turned out to be 393.

In the case of `CO[C@]1(C(=O)O)C[C@H](O)[C@@H](NC(C)=O)[C@H]([C@H](O)[C@H](O)CNC(=O)c2ccc(NC(C)=O)cc2)O1` [Methyl-α-9-N-(acetamidobenzoyl)-amino-9-desoxy-Neu5Ac], the “Siglec-1 (sialoadhesin) rIP” value at Siglec-1 (sialoadhesin) is recorded as 3.0. Also, the IC50 against Siglec-1 (sialoadhesin) (unit inferred) is 0.295 mM; against Siglec-2 (murine CD22) (unit inferred) it was 1.03 mM; against Siglec-2 (human CD22), 580 µM; at Siglec-4a (MAG) it was 62 µM. For the same compound, the “Siglec-2 (human CD22) rIP” value at Siglec-2 (human CD22) stood at 2.4. Further, the “Siglec-4a (MAG) rIP” value at Siglec-4a (MAG) is on record as 77.

`COC1(C(=O)O)CC(O)C(NC(C)=O)C(C(O)C(O)CNC(=O)c2cccc3cc4ccccc4cc23)O1` (stereo not drawn) [Methyl-α-9-N-(anthracen-5-carbonyl)-amino-9-desoxy-Neu5Ac]: the “Siglec-1 (sialoadhesin) rIP” value on Siglec-1 (sialoadhesin) amounted to 0.5. Further, the IC50 against Siglec-1 (sialoadhesin) (unit inferred) was determined as 0.75 mM; on Siglec-2 (murine CD22) (unit inferred) it was 0.647 mM; against Siglec-2 (human CD22) it was 338 µM; at Siglec-4a (MAG), 162 µM. Moreover, the “Siglec-2 (murine CD22) rIP” value on Siglec-2 (murine CD22) is listed as 7.4. The “Siglec-2 (human CD22) rIP” value at Siglec-2 (human CD22) was 4.9. Also, the “Siglec-4a (MAG) rIP” value at Siglec-4a (MAG) came to 28.

Take `CO[C@]1(C(=O)O)C[C@H](O)[C@@H](NC(C)=O)[C@H]([C@H](O)[C@H](O)CNC(=O)c2ccccc2-c2ccccc2)O1` [Methyl-α-9-N-(biphenyl-2-carbonyl)-amino-9-desoxy-Neu5Ac]: the “Siglec-1 (sialoadhesin) rIP” value at Siglec-1 (sialoadhesin) was 0.3. For the same compound, the IC50 against Siglec-1 (sialoadhesin) (unit inferred) is 2.6 mM; against Siglec-2 (murine CD22) (unit inferred) it was 0.647 mM; at Siglec-2 (human CD22), 97 µM. The “Siglec-2 (murine CD22) rIP” value at Siglec-2 (murine CD22) is on record as 9.5. Also, the “Siglec-2 (human CD22) rIP” value at Siglec-2 (human CD22) is on record as 10.

As to `CO[C@]1(C(=O)O)C[C@H](O)[C@@H](NC(C)=O)[C@H]([C@H](O)[C@H](O)CNC(=O)Cc2ccc(-c3ccccc3)cc2)O1` [Methyl-α-9-N-(biphenyl-4-acetyl)-amino-9-desoxy-Neu5Ac], the “Siglec-1 (sialoadhesin) rIP” value on Siglec-1 (sialoadhesin) was 0.3. The values for the IC50 at Siglec-1 (sialoadhesin) (unit inferred), against Siglec-2 (murine CD22) (unit inferred) and on Siglec-2 (human CD22) were 3 mM, 0.123 mM and 35 µM, respectively. The “Siglec-2 (murine CD22) rIP” value on Siglec-2 (murine CD22) is listed as 48. Also, the “Siglec-2 (human CD22) rIP” value at Siglec-2 (human CD22) amounted to 29.

Regarding `COC1(C(=O)O)CC(O)C(NC(C)=O)C(C(O)C(O)CNC(=O)c2ccc3ccccc3n2)O1` (stereo not drawn) [Methyl-α-9-N-(chinaldine-2-carbonyl)-amino-9-desoxy-Neu5Ac], on Siglec-1 (sialoadhesin), the “Siglec-1 (sialoadhesin) percentage in parentheses below the IC50 bound” value is on record as “(100%)”. Moreover, the half-maximal inhibitory concentration (IC50) at Siglec-1 (sialoadhesin) (bounds given in mM) was above 2.5 mM; on Siglec-2 (murine CD22) (bounds given in mM), above 10 mM; on Siglec-2 (human CD22) it was 41 µM; at Siglec-4a (MAG), 87 µM. On Siglec-1 (sialoadhesin), the “Siglec-1 (sialoadhesin) rIP” value is <<0.2. Besides, the “Siglec-2 (murine CD22) percentage in parentheses below the IC50 bound” value on Siglec-2 (murine CD22) (at the concentration of the IC50 bound, meaning not defined in the patent) was “(100%)”. Besides, the “Siglec-4a (MAG) rIP” value at Siglec-4a (MAG) worked out at 54.

Take `CO[C@]1(C(=O)O)C[C@H](O)[C@@H](NC(C)=O)[C@H]([C@H](O)[C@H](O)CNC(=O)C(c2ccccc2)c2ccccc2)O1` [Methyl-α-9-N-(diphenylacetyl)-amino-9-desoxy-Neu5Ac]: the “Siglec-1 (sialoadhesin) rIP” value at Siglec-1 (sialoadhesin) is on record as 0.2. The IC50 at Siglec-1 (sialoadhesin) (unit inferred) came to 4.4 mM; against Siglec-2 (murine CD22) (unit inferred), 0.103 mM; against Siglec-2 (human CD22), 35 µM; at Siglec-4a (MAG) it was 150 µM. Besides, the “Siglec-4a (MAG) rIP” value on Siglec-4a (MAG) is on record as 31.

`CO[C@]1(C(=O)O)C[C@H](O)[C@@H](NC(C)=O)[C@H]([C@H](O)[C@H](O)CNC(=O)c2cccc3ccccc23)O1` [Methyl-α-9-N-(naphthyl-1-carbonyl)-amino-9-desoxy-Neu5Ac]: the “Siglec-1 (sialoadhesin) rIP” value on Siglec-1 (sialoadhesin) is reported as 0.3. Also, the IC50 against Siglec-1 (sialoadhesin) (unit inferred) turned out to be 3 mM; at Siglec-2 (murine CD22) (unit inferred), 0.092 mM; against Siglec-2 (human CD22), 37 µM; at Siglec-4a (MAG), 56 µM. The “Siglec-2 (murine CD22) rIP” value at Siglec-2 (murine CD22) stood at 64. The “Siglec-2 (human CD22) rIP” value at Siglec-2 (human CD22) turned out to be 27. For the same compound, the “Siglec-4a (MAG) rIP” value on Siglec-4a (MAG) is listed as 84.

Consider `COC1(C(=O)O)CC(O)C(NC(C)=O)C(C(O)C(O)CNC(=O)c2cccc(Oc3ccccc3)c2)O1` (stereo not drawn) [Methyl-α-9-N-(phenoxy-3-benzoyl)-amino-9-desoxy-Neu5Ac], for which the “Siglec-1 (sialoadhesin) rIP” value on Siglec-1 (sialoadhesin) is 1.5. Besides, the concentration for half-maximal inhibition (IC50) came out at 0.54 mM against Siglec-1 (sialoadhesin) (unit inferred), 0.887 mM against Siglec-2 (murine CD22) (unit inferred) and 10 µM against Siglec-2 (human CD22). Also, the “Siglec-2 (murine CD22) rIP” value at Siglec-2 (murine CD22) was 6.7. In addition, on Siglec-2 (human CD22), the “Siglec-2 (human CD22) rIP” value turned out to be 111.

Turning to “Methyl-α-9-N-(cyclobutendion)-amino-9-desoxy-Neu5Ac”, the “Siglec-2 (murine CD22) rIP” value on Siglec-2 (murine CD22) was 7.4. The compound also had a half-inhibitory concentration (IC50) against Siglec-2 (murine CD22) (unit inferred) of 0.62 mM. Also, on Siglec-2 (human CD22), the “Siglec-2 (human CD22) rIP” value was found to be 5.7 and the IC50 amounted to 180 µM.
